Common to all, as to type: biochemical
For series [1], the target named is elastase from human polymorphonuclear granulocytes (PMN elastase). In words: PMN elastase inhibition assay (chromogenic substrate MeO-Suc-Ala-Ala-Pro-Val-pNA). The procedure:
The liberation of the paranitroaniline from the substrate was measured in a spectrophotometer as the increase in absorption at 405 nm within 15 min. This absorption was defined as 100% activity of the PMN elastase enzyme. The inhibitors were preincubated in concentrations increasing up to a maximum of 100 μg/ml with the enzyme for one hour. The enzyme reaction was then started with the substrate. The assay was carried out in 0.1 mol/1 HEPES, pH 7.5, +0.1 mol/1 sodium chloride. The substrate concentration was 0.13 mmol/1.

Series [2] has as its system bovine thrombin. In words: progressive inhibitory activity (Hensen et al. 1963), rate of thrombin inactivation, clotting time. To be noted: purified protein, without heparin. The procedure: As taught in Hensen et al., progressive inhibiting activity is measured by an antithrombin III assay according to the principle that the material to be tested is incubated with thrombin. The rate of thrombin inactivation is measured and is used as a standard of antithrombin III activity.
In the procedure, a bovine thrombin solution of 50 N.I.H. units/ml, stored at-25° C., after being thawed is kept as melting ice; 0.2 ml of this thrombin solution with 0.6 ml veronal buffer, in a siliconized tube, is placed in a waterbath at 37° C. After a minimum of 2 minutes preheating, 0.2 ml of the material to tested (heat-defibrinated plasma or serum or a plasma fraction) is added to the mixture, and a chronometer is started. Exactly 1, 3 and 5 minutes later, 0.2 ml of this incubation mixture is added to 0.3 ml diluted bovine BaSO4 -plasma which has been pre-heated in the waterbath for 2-20 minutes and kept in non-siliconized tubes. The clotting times obtained are registered. The determination is made in duplicate.
If the antithrombin III activity in the sample tested is found to be low (less than 50% of the normal), then the determination should be repeated with the double quantity of the material to be tested (0.4 ml and 0.4 ml veronal buffer).
In the calculation, three times are obtained per determination. […]

Series [3] has as its system thrombin. Description: heparin cofactor activity (Schrader et al. 1986), Berichrom test kit, excess heparin and thrombin. The note with it: purified protein, excess of heparin and thrombin. Here is the method:
As taught in Schrader et al., for the determination of the heparin cofactor activity of the AT III mutants with the test kit Berichrom® (Behringwerke AG, Marburg) a solution with the particular AT III mutant was incubated with an excess of heparin and thrombin. The produced AT III mutant-heparin-complex inhibits a part of the thrombin. The non-inactivated part of the thrombin cleaves the chromogenic substrate which was added to the solution and the amount of produced p-nitroaniline was measured at 405 nm photometrically.

Series [4] deals with alpha-thrombin (human). Description: dependence of thrombin inactivation on the heparin concentration. Here is the method:
The two mutants were examined for their relative ability to inactivate thrombin as a function of the heparin concentration in the assay and compared with AT III plasma, AT III-WT and the mutant AT III-Lys49 (Tab. 5).
The assay was carried out under the following conditions: 0.02 U (antigen)/ml AT III (AT III plasma, AT III-WT or AT III-Mut) was preincubated with 0.3 IU/ml alpha-thrombin (human), 2 KIU/ml aprotinin (Behringwerke) and heparin (Hoffmann-LaRoche) in concentrations of 0-25 IU/ml in a volume of I ml at 37° C. for 5minutes. After addition of 100 μl of substrate reagent (2 mM HD-CHA-But-Arg-pNA), the change in extinction at 405 nm (37° C.) was followed kinetically. The maximum inhibition of alpha-thrombin at heparin saturation was set equal to 100%.
Tab. 5 indicates the heparin concentration at half-maximum thrombin inhibition (c 1/2) for AT III plasma, AT III-WT and various AT III mutants.

For the substance “alpha1 PI: reference inhibitor alpha1 protease inhibitor (alpha1 antitrypsin)”, the “IC50, inhibition of PMN elastase” value in series [1] (1 h preincubation with enzyme, substrate 0.13 mmol/l, 0.1 mol/l HEPES pH 7.5 + 0.1 mol/l NaCl, max. 100 μg/ml) is 3.7 µg/mL. The “type of inhibition of PMN elastase” value in series [1] (KI determination) was “non-competitive inhibition”.
With “ATIII-Gln135: AT III mutant with Asn→Gln exchange in position 135, lacking a carbohydrate side-chain”, the “PI, progressive inhibitory activity” value in series [2] worked out at 3.9 U/mg. In addition, in series [3], the “HC, heparin cofactor activity” value was determined as 4.5 U/mg. In addition, the “C 1/2 Heparin, heparin concentration at half-maximum relative thrombin inhibition” value in series [4] (0.02 U/ml AT III, 0.3 IU/ml alpha-thrombin, heparin 0-25 IU/ml, 5 min 37° C.) came to 22 mIU/ml. Further, in series [4] (compared in words), the “inhibition of thrombin at low heparin concentrations” value is “better than that of AT III plasma and AT III-WT”.

These data come from US5618713A, “Mutants of human antithrombin III” (Behringwerke Aktiengesellschaft, priority 1989, dated 1997).
